# Data reported in patent publication US20040127363A1, “Pesticidal compositions containing silicon compounds” (priority 2000, published 2004).
# Tested on: mites and insects
# Assay: Pesticidal activity in a variety of application forms
# Assay type: in vivo
# Details: diluted aqueous solutions, emulsions with surfactant, or without any solvent
# Description: The pesticidal activity was found both in diluted aqueous solutions and in emulsions together with suitable ionic, amphoteric or non-ionic surfactant, or without any solvent.
# The pesticidal activity of the silicon esters of the present invention was tested against mites and insects.
compound,measurement,value
CCCCO[Si](OCCCC)(OCCCC)OCCCC [tetrabutyl ortho silicate],pesticidal activity,high pesticidal activity
